US7662842B2, “Thiazolidinone amides, thiazolidine carboxylic acid amides, and serine amides, including polyamine conjugates thereof, as selective anti-cancer agents” (Ohio State Univesity Research Foundation, priority 2003, dated 2010)
Where a name gives a salt, the structure may show the parent alone. Read-outs that look alike come from different tables or passages of the source.

Key:
SKMEL-188 melanoma cells = assay: Sulforhodamine B assay in melanoma cells, SKMEL-188; type: cell-based; conditions: SRB assay, 48 h incubation, melanoma cell line
Procedure: (§1) SKMEL-188 cells were cultured in Ham's F10 medium (Gibco Invitrogen, Inc., Grand Island, N.Y.) plus 5% fetal bovine serum (Cellgro Mediatech, Inc., Herndon, Va.) and 1% antibiotic/antimycotic mixture (Sigma-Aldrich, Inc., St. Louis, Mo.). WM-164 cells (gift of Dr. Meenhard Herlyn, Wistar Inst., Philadelphia, Pa.) and human dermal fibroblasts (Cascade Biologics, Inc., Portland, Oreg.) were cultured in DMEM medium (Cellgro Mediatech, Inc.) supplemented with 5% fetal bovine serum, 1% antibiotic.antimycotic mixture and bovine insulin ([…], Sigma-Aldrich, Inc.). Human dermal fibroblasts were used as a control to examine the effects of compounds on stromal environment. Thus, the effect of the various compounds on melanoma cells versus fibroblasts would document their potential selectivity.
(§2) Sulforhodamine B Assay: Cells were seeded into 96-well plates at 5000 cells/well. After 12 hours, media were changed and serial dilutions of compounds were added. Cells were incubated with each compound for 48 hours. Fresh media containing the test compound were changed ever 24 hours. Thereafter, total cell protein corresponding to cell numbers (both viable and non-viable cells) were measured using the sulforhodamine B (SRB) assay according to manufacturer's protocol (Sigma-Aldrich, Inc.) (Rubinstein et al., “Comparison of in vitro Anticancer Drug-screening Data Generated with a Tetrazolium Assay Versus a Protein Assay Against a Diverse Panel of Human Tumor Cell Lines,” J. Natl. Cancer Inst. 82:1113-1118 (1990); Dothager et al., “Synthesis and Identification of Small Molecules that Potently Induce Apoptosis in Melanoma Cells Through GI Cell Cycle Arrest,” J. Am. Chem. Soc. 127:8686-8696 (2005), each of which is hereby incorporated by reference in its entirety). Briefly, cells were fixed with trichloracetic acid, washed and incubated with sulforhodamine B for 30 minutes. After another wash, dye incorporated into the cells was solubilized and measured using a plate reader at 565 nm.
(§3) Statistical Analysis: Data is presented as mean±SEM (n=6-8). […] Statistical analyses were performed with Student's t-test (*p<0.05; **p<0.005).
(§4) DTIC and Taxol were assayed in the same way for comparison and served as internal quality controls in the different batches of assay. For comparison, the activities of 5R and 5S were measured.

WM-164 cells = assay: Sulforhodamine B assay in melanoma cells, WM-164; type: cell-based; conditions: SRB assay, 48 h incubation, melanoma cell line
Procedure: as §1, §2, §3, §4

human dermal fibroblasts = assay: Sulforhodamine B assay, fibroblast control cells; type: cell-based; conditions: SRB assay, 48 h incubation
Procedure: as §1, §2, §3, §4

[1] = tested on: human breast cancer cell line (MCF-7); assay: SRB cytotoxicity assay, MCF-7; type: cell-based
Procedure: (§5) For in vitro cytotoxicity screening, 1000 to 5000 cells were plated into each well of 96-well plates depending on growth rate, and exposed to different concentrations of a test compound for 96 h in three to five replicates. All the compounds were dissolved in dimethyl sulfoxide at 5 to 20 mM, and diluted to desired concentrations in complete culture medium. Cell numbers at the end of the drug treatment were measured by the SRB assay (Gududuru et al., “Synthesis and Biological Evaluation of Novel Cytotoxic Phospholipids for Prostate Cancer,” Bioorg. Med. Chem. Lett. 14:4919-4923 (2004); Rubinstein et al., “Comparison of in vitro Anticancer-Drug-Screening Data Generated with a Tetrazolium Assay Versus a Protein Assay Against a Diverse Panel of Human Tumor Cell Lines,” J. Natl. Cancer Inst. 82:1113-1118 (1990), each of which is hereby incorporated by reference in its entirety). Briefly, the cells were fixed with 10% of trichloroacetic acid, stained with 0.4% SRB, and the absorbances at 540 nm was measured using a plate reader (DYNEX Technologies, Chantilly, Va.). […] A sandwich ELISA (Roche, Mannheim, Germany) utilizing monoclonal antibodies specific for DNA and histones was used to quantify degree of apoptosis induced by the analogs after 72 h exposure. This assay measures DNA-histone complexes (mono- and oligonucleosomes) released into cytoplasm from the nucleus during apoptosis.
In vitro cytotoxicity assay was performed by the same sulforhodamine B (SRB) assay (described above). The compounds shown in Table 8 below where tested for activity against the breast cancer and ovarian cancer cell lines.
RH7777 and CV-1 cells were used as negative controls and MCF-7 cell line (breast cancer) was included to examine the selectivity.

[2] = tested on: PPC-1 human prostate cancer cells; assay: SRB cytotoxicity assay, PPC-1; type: cell-based; conditions: prostate cancer cell line
Procedure: (§6) Dr. Mitchell Steiner at University of Tennessee Health Science Center, kindly provided PPC-1 and TSU-Pr1 cells.
as §5

[3] = tested on: PC-3 human prostate cancer cells; assay: SRB cytotoxicity assay, PC-3; type: cell-based; conditions: 96 h exposure, prostate cancer cell line
Procedure: as §5

[4] = tested on: RH7777 rat hepatoma cells; assay: SRB cytotoxicity assay, RH7777 control cell line; type: cell-based; conditions: SRB assay, 96 h exposure, control cell line
Procedure: as §5

[5] = tested on: DU-145 human prostate cancer cells; assay: SRB cytotoxicity assay, DU-145; type: cell-based
Procedure: as §5

[6] = tested on: LNCaP human prostate cancer cells; assay: SRB cytotoxicity assay, LNCaP; type: cell-based; conditions: 96 h exposure, prostate cancer cell line
Procedure: as §5

[7] = tested on: TSU-Pr1 human prostate cancer cells; assay: SRB cytotoxicity assay, TSU-Pr1; type: cell-based; conditions: prostate cancer cell line
Procedure: as §6, §5

CV-1 cells = assay: SRB cytotoxicity assay, CV-1 control cell line; type: cell-based
Procedure: For in vitro cytotoxicity screening, 1000 to 5000 cells were plated into each well of 96-well plates depending on growth rate, and exposed to different concentrations of a test compound for 96 h in three to five replicates. All the compounds were dissolved in dimethyl sulfoxide at 5 to 20 mM, and diluted to desired concentrations in complete culture medium. Cell numbers at the end of the drug treatment were measured by the SRB assay (Gududuru et al., “Synthesis and Biological Evaluation of Novel Cytotoxic Phospholipids for Prostate Cancer,” Bioorg. Med. Chem. Lett. 14:4919-4923 (2004); Rubinstein et al., “Comparison of in vitro Anticancer-Drug-Screening Data Generated with a Tetrazolium Assay Versus a Protein Assay Against a Diverse Panel of Human Tumor Cell Lines,” J. Natl. Cancer Inst. 82:1113-1118 (1990), each of which is hereby incorporated by reference in its entirety). Briefly, the cells were fixed with 10% of trichloroacetic acid, stained with 0.4% SRB, and the absorbances at 540 nm was measured using a plate reader (DYNEX Technologies, Chantilly, Va.). […] A sandwich ELISA (Roche, Mannheim, Germany) utilizing monoclonal antibodies specific for DNA and histones was used to quantify degree of apoptosis induced by the analogs after 72 h exposure. This assay measures DNA-histone complexes (mono- and oligonucleosomes) released into cytoplasm from the nucleus during apoptosis. RH7777 cells were employed because of nonspecific cytotoxicity of compound 4 in receptor-negative cells as well as receptor-positive prostate cancer cells.
RH7777 and CV-1 cells were used as negative controls and MCF-7 cell line (breast cancer) was included to examine the selectivity. 5-Fluorouracil was used as reference drug.

[8] = Homo sapiens, WM164, read-out: IC50 WM-164
[9] = Homo sapiens, PPC-1, 96 h exposure
[10] = read-out: IC50 DU-145, 96 h exposure, prostate cancer cell line

## CCCCCCCCCCCCCCOCCCNCCCNC(=O)[C@@H](CO)NC(=O)OC(C)(C)C
SKMEL-188 melanoma cells; SK-MEL-188, 48 h
  IC50: 3.8 µM
WM-164 cells; [8]
  IC50: 3.3 µM
Human dermal fibroblasts; Homo sapiens, Fibroblast, 48 h
  IC50: 3.4 µM

## CCCCCCCCCCCCCCCCCCNC(=O)C1CSC(c2ccoc2)N1 (stereo not drawn) (as salt: hydrochloride) [Compound 12, 2-(furan-3-yl)-N-octadecylthiazolidine-4-carboxamide]
other
  melting point: 99 °C

## CCCCCCCCCCCCCCCCCCNC(=O)[C@@H]1CSC(CCCCCCCCCCCC)N1 (mixture of isomers) [Compound 7, (2RS, 4R)-2-Dodecylthiazolidine-4-carboxylic acid octadecylamide]
other
  melting point: 86 °C

## CCCCCCCCCCCCCCCCCCNC(=O)[C@@H]1CSC(C2CCCCC2)N1 (mixture of isomers) [Compound 8, (2RS, 4R)-2-Cyclohexylthiazolidine-4-carboxylic acid octadecylamide]
WM-164 cells; [8]
  IC50: > 50 µM

## CCCCCCCCCCCCCCCCCCNC(=O)[C@@H]1CSC(c2c[nH]c3ccccc23)N1 (mixture of isomers) [Compound 10, (2RS, 4R)-2-(1H-Indol-3yl)-thiazolidine-4-carboxylic acid octadecylamide]
[1]; Homo sapiens, MCF7, SRB assay
  IC50: 10.6 µM

## CCCCCCCCCCCCCCCCCCNC(=O)[C@@H]1CSC(c2ccc(OC)cc2)N1.Cl (mixture of isomers) [Compound 15, (2RS, 4R)-2-(4-Methoxy-phenyl)-thiazolidine-4-carboxylic acid octadecylamide Hydrochloride]
SKMEL-188 melanoma cells; SK-MEL-188, 48 h
  IC50: 9.7 µM
WM-164 cells; [8]
  IC50: 13.1 µM
Human dermal fibroblasts; Homo sapiens, Fibroblast, 48 h
  IC50: 28 µM
other
  melting point: 95 °C

## CCCCCCCCCCCCCCCCCCNC(=O)[C@@H]1CSC(c2cc(OC)c(OC)c(OC)c2)N1.Cl (mixture of isomers) [Compound 17, (2RS, 4R)-2-(3,4,5-Trimethoxy-phenyl)-thiazolidine-4-carboxylic acid octadecylamide Hydrochloride]
[2]; [9]
  IC50: 0.48 µM
SKMEL-188 melanoma cells; SK-MEL-188, 48 h
  IC50: 1.8 µM
WM-164 cells; [8]
  IC50: 1.5 µM
Human dermal fibroblasts; Homo sapiens, Fibroblast, 48 h
  IC50: 5.2 µM
other
  melting point: 115 °C

## CCCCCCCCCCCCCCCCCCNC(=O)[C@@H]1CSC(c2ccc(NC(C)=O)cc2)N1.Cl (mixture of isomers) [Compound 18, (2RS, 4R)-2-(4-Acetylamino-phenyl)-thiazolidine-4-carboxylic acid octadecylamide Hydrochloride]
SKMEL-188 melanoma cells; SK-MEL-188, 48 h
  IC50: 2.7 µM
WM-164 cells; [8]
  IC50: 5.5 µM
Human dermal fibroblasts; Homo sapiens, Fibroblast, 48 h
  IC50: > 10 µM
other
  melting point: 170 °C

## CCCCCCCCCCCCCCCCCCNC(=O)[C@@H]1CSC(c2ccc(F)cc2)N1 (mixture of isomers) [Compound 19, (2RS, 4R)-2-(4-Fluoro-phenyl)-thiazolidine-4-carboxylic acid octadecylamide]
[3]; Homo sapiens
  IC50: 6.8 µM

## CCCCCCCCCCCCCCCCCCNC(=O)[C@@H]1CSC(c2ccc([N+](=O)[O-])cc2)N1 (mixture of isomers) [Compound 21, (2RS, 4R)-2-(4-Nitro-phenyl)-thiazolidine-4-carboxylic acid octadecylamide]
[1]; Homo sapiens, MCF7, SRB assay
  IC50: 15.3 µM

## CCCCCCCCCCCCCCCCCCNC(=O)[C@@H]1CSC(c2ccc(C#N)cc2)N1 (mixture of isomers) [Compound 22, (2RS, 4R)-2-(4-Cyano-phenyl)-thiazolidine-4-carboxylic acid octadecylamide]
[4]; Rattus norvegicus, RH7777
  IC50: > 20 µM
[5]; Homo sapiens, DU-145, read-out: IC50 DU-145, 96 h exposure, prostate cancer cell line
  IC50: > 20 µM
[6]; Homo sapiens, LNCaP
  IC50: 5.9 µM
[2]; [9]
  IC50: 5 µM
[7]; Homo sapiens, TSU-Pr1, 96 h exposure
  IC50: > 20 µM
other
  melting point: 90 °C

## CCCCCCCCCCCCCCCCCCNC(=O)[C@@H]1CSC(c2c(Cl)cccc2Cl)N1 (mixture of isomers) [Compound 24, (2RS, 4R)-2-(2,6-Dichloro-phenyl)-thiazolidine-4-carboxylic acid octadecylamide]
other
  melting point: 49 °C

## CCCCCCCCCCCCCCCCCCNC(=O)[C@@H]1CSC(c2ccc(-c3ccccc3)cc2)N1.Cl (mixture of isomers) [Compound 27, (2RS, 4R)-2-Biphenyl-4-yl-thiazolidine-4-carboxylic acid octadecylamide Hydrochloride]
other
  melting point: 130 °C

## COc1cc(C2NC(C(=O)NCCCNCCCCNCCCN)CS2)cc(OC)c1OC (mixture of isomers) [Compound 224]
[4]
  IC50: 71.9 µM
[5]; [10]
  IC50: 5.1 µM
[3]
  IC50: 5.9 µM
[6]
  IC50: 10.9 µM
[2]; 96 h exposure
  IC50: 5 µM
[7]; 96 h exposure
  IC50: 3 µM
[1]; SRB assay
  IC50: > 100 µM
CV-1 cells
  IC50: 30.5 µM

## NCCCNCCCCNCCCNC(=O)C(N)CO (stereo not drawn) [Compound 216]
[4]
  IC50: 58.2 µM
[5]; [10]
  IC50: 4.6 µM
[3]
  IC50: 4.8 µM
[6]
  IC50: 8 µM
[2]; 96 h exposure
  IC50: 4 µM
[7]; 96 h exposure
  IC50: 2.5 µM
[1]; SRB assay
  IC50: > 100 µM
CV-1 cells
  IC50: 37.1 µM

## NCCCNCCCCNCCCNC(=O)CN1C(=O)CSC1c1ccccc1 (stereo not drawn) [Compound 220]
[4]
  IC50: 68.4 µM
[5]; [10]
  IC50: 5.3 µM
[3]
  IC50: 7 µM
[6]
  IC50: 12.2 µM
[2]; 96 h exposure
  IC50: 5.7 µM
[7]; 96 h exposure
  IC50: 3.2 µM
[1]; SRB assay
  IC50: > 100 µM
CV-1 cells
  IC50: 34 µM

## CCCCCCCCCCCCCCCCCCNC[C@@H](CO)NC [drawing 31]
SKMEL-188 melanoma cells; SK-MEL-188, 48 h
  IC50: 3.2 µM
WM-164 cells; [8]
  IC50: 3.6 µM
Human dermal fibroblasts; Homo sapiens, Fibroblast, 48 h
  IC50: 1.6 µM

## CCCCCCCCCCCCCCCCCCNC[C@@H](CO)NC [drawing 32]
SKMEL-188 melanoma cells
  IC50: 3.1 µM
WM-164 cells; read-out: IC50 WM-164
  IC50: 3.6 µM
Human dermal fibroblasts
  IC50: 2.3 µM
